Drawing on patent US20260272936A1, “TREATMENT OF CANCER WITH A PARG INHIBITOR” (858 Therapeutics, Inc., priority 2023, published 2026), this text covers IC50 and IC90 for 1 molecule.

Test [1] has as its system T025OV ovarian cancer patient-derived organoid. Description: 7-day organoid colony formation, ATP content (Cell Titer Glo 3D). In kind it is cell-based. As to conditions: Homo sapiens, 168 h, T025OV PDO, 7 days, geometric mean. An excerpt: The FU-97 (Cat #JCRB1074) human gastric cancer cell line and the Kuramochi (Cat #JCRB0098) and RMUG-S(Cat #IFO50320) human ovarian cancer cell lines were obtained from the National Institutes of Biomedical Innovation, Health and Nutrition's Japanese Collection of Research Bioresources (JCRB) (Ibaraki City, Osaka, Japan). The HCC1419 (Cat #CRL-2326) and HCC1428 (Cat #CRL-2327) human breast cancer cell lines and the NCI-H1650 (Cat #CRL-5883) and NCI-H1792 (Cat #CRL-5895) non-small cell lung cancer cell lines were obtained from ATCC (Manassas, Virginia, USA). The human gastric cancer cell lines GCIY (Cat #RCB0555) and SNU601 (Cat #CSC-C9686L) were obtained from the Riken Bioresource Research Center (Tsukuba, Ibaraki, Japan) and Creative Bioarray (Shirley, NY, USA), respectively. The T025OV ovarian cancer organoid model was developed from a patient-derived xenograft (PDX) model, which was developed from primary serous ovarian carcinoma cells obtained from Discovery Life Sciences (Huntsville, AL, USA, SN #350627149). […]
Compound 1 IC50 values for inhibition of organoid colony formation were determined by measuring ATP levels after 7 days of treatment utilizing Cell Titer Glo 3D reagent (Promega, Madison, WI, USA Cat #G9683). […] Luminescence values (RLU) were read-out using a Clariostar plate reader (BMG Labtech, Cary, NC). […]

The subject of the next test is Parental SNU601 cells. The experiment in a line: 6-day proliferation, nuclei count, parental line. The class given is cell-based. As to conditions: Homo sapiens, SNU-601, 144 h, read-out: IC50 inhibition of proliferation. Here is the method: The SNU601 gastric carcinoma cell line (Creative Bioarray, Cat #CSC-C9686L) was cultured in RPMI media containing glutamax, 10% fetal bovine serum, and 1% penicillin/streptomycin at 37° C., 5% CO2. To generate a PARP inhibitor resistant cell line, an IC20 concentration of niraparib was added to the culture media.
Compound 1 and the PARP inhibitor niraparib were tested in cellular proliferation assays using the parental SNU601 cell line and the SNU601 cell line with acquired PARPi resistance. For the proliferation assays, cells were plated in 96-well plates (Corning costar 3603) at 2500-5000 cells/well in normal growth media. The next day, compound dissolved in vehicle (0.5% DMSO in media) was added to generate a 7- to 10-point concentration curve with half-log dilutions and starting concentrations of 10 or 31.6 μM. After 6 days of compound or vehicle treatment, the cells were fixed with a solution of 8% paraformaldehyde, 0.2% Triton X-100 for 20 minutes. After washing the cells with PBS, the nuclei were stained by the addition of DAPI (4′,6-diamidino-2-phenylindole) and incubation for 20 minutes. The number of nuclei in each well were counted by imaging the plates on an Image Xpress Pico automated cell imaging system (Molecular Devices). The percent proliferation after treatment was determined by normalizing the number of nuclei in treated wells to the vehicle-treated wells. […]

`[2H]C([2H])(c1cnn(C)c1)N1C(=O)c2cc(S(=O)(=O)NC3(C)CC3)ccc2N2C1=NC[C@H]2C` [Compound 1, (R)-1-methyl-4-((1-methyl-1H-pyrazol-4-yl)methyl-d2)-N-(1-methylcyclopropyl)-5-oxo-1,2,4,5-tetrahydroimidazo[1,2-a]quinazoline-7-sulfonamide]: the IC50 in test [1] (read-out: IC50 inhibition of ATP content) was 1070 nM; with Parental SNU601 cells, 210 nM. Further, the IC90 (in general, the concentration needed for an effect of 90%) in test [1] (read-out: IC90 inhibition of ATP content) is 10700 nM.
